Among the data in PubChem BioAssay AID192 (DTP/NCI, 2004) are T/C values, retold here.

Values joined by “and” are separate entries in the source; they are usually repeats but may differ in a detail not shown here. Identical values can stand only once. Inconclusive results and toxic doses are left out.

This assay concerns BDF1 mice, B16 melanoma ip, median survival T/C. Description: NCI In Vivo Anticancer Drug Screen. Data for tumor model B16 Melanoma (intraperitoneal) in B6D2F1 (BDF1) mice. As to conditions: endpoint: median survival time, higher = longer survival. The procedure, abridged: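 Mice with transplantable tumors; drug vs vehicle groups; endpoint survival or tumor size; value = T/C.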

Setting [1] is: dose: 100.0 mg/kg/injection, schedule: Q01DX009 (ip), vehicle: saline.
Where [2] appears, read: dose: 200.0 mg/kg/injection, schedule: Q01DX009 (ip), vehicle: saline.
Setting [3] is: dose: 6.25 mg/kg/injection, schedule: Q01DX009 (ip), vehicle: saline with Tween-80.
The mark [4] stands for this setting: dose: 12.5 mg/kg/injection, schedule: Q01DX009 (ip), vehicle: Klucel (hydroxypropylcellulose) (HPC).
Setting [5] is: dose: 12.5 mg/kg/injection, schedule: Q01DX009 (ip), vehicle: saline with Tween-80.
Where [6] appears, read: dose: 25.0 mg/kg/injection, schedule: Q01DX009 (ip), vehicle: Klucel (hydroxypropylcellulose) (HPC).
[7] abbreviates: dose: 50.0 mg/kg/injection, schedule: Q01DX009 (ip), vehicle: Klucel (hydroxypropylcellulose) (HPC).
Setting [8] is: dose: 100.0 mg/kg/injection, schedule: Q01DX009 (ip), vehicle: Klucel (hydroxypropylcellulose) (HPC).
The mark [9] stands for this setting: dose: 200.0 mg/kg/injection, schedule: Q01DX009 (ip), vehicle: Klucel (hydroxypropylcellulose) (HPC).
Setting [10] is: dose: 400.0 mg/kg/injection, schedule: Q01DX009 (ip), vehicle: Klucel (hydroxypropylcellulose) (HPC).
Where [11] appears, read: dose: 50.0 mg/kg/injection, schedule: Q04DX003 (ip), vehicle: Klucel (hydroxypropylcellulose) (HPC).
The mark [12] stands for this setting: dose: 100.0 mg/kg/injection, schedule: Q04DX003 (ip), vehicle: Klucel (hydroxypropylcellulose) (HPC).
Setting [13] is: dose: 200.0 mg/kg/injection, schedule: Q04DX003 (ip), vehicle: Klucel (hydroxypropylcellulose) (HPC).
Where [14] appears, read: dose: 12.5 mg/kg/injection, schedule: Q01DX009 (ip), vehicle: saline.
Setting [15] is: dose: 25.0 mg/kg/injection, schedule: Q01DX009 (ip), vehicle: saline.
[16] abbreviates: dose: 50.0 mg/kg/injection, schedule: Q01DX009 (ip), vehicle: saline.
[17] abbreviates: dose: 50.0 mg/kg/injection, schedule: Q01DX009 (ip), vehicle: saline with Tween-80.
Where [18] appears, read: dose: 100.0 mg/kg/injection, schedule: Q01DX009 (ip), vehicle: saline with Tween-80.
Where [19] appears, read: dose: 200.0 mg/kg/injection, schedule: Q01DX009 (ip), vehicle: saline with Tween-80.
Setting [20] is: dose: 400.0 mg/kg/injection, schedule: Q01DX009 (ip), vehicle: saline with Tween-80.

Regarding `CCCCCCCCCCCCCCCCCCNC(=S)N/N=C/c1ccc(Cl)cc1Cl`, the T/C is 87 % of control under setting [1] and 95 % of control under setting [2].

In the case of `O=C1C2(Cl)C3(Cl)C4(Cl)C(Cl)(Cl)C5(Cl)[C@]3(Cl)C1(Cl)[C@]5(Cl)C24Cl` (some centres not stated), the T/C reads like this: (dose: 3.12 mg/kg/injection, schedule: Q01DX009 (ip), vehicle: Klucel (hydroxypropylcellulose) (HPC)) 97 % of control; (dose: 6.25 mg/kg/injection, schedule: Q01DX009 (ip), vehicle: Klucel (hydroxypropylcellulose) (HPC)) 105 % of control; under setting [3], 102 % of control; under setting [4], 98 % of control; under setting [5], 106 % of control; under setting [6], 110 % of control.

In the case of `O=C(CCCN1CCC(O)(c2cccc(C(F)(F)F)c2)CC1)c1ccc(F)cc1`, the T/C (dose: 0.04 mg/kg/injection, schedule: Q01DX009 (ip), vehicle: Klucel (hydroxypropylcellulose) (HPC)) is 93 % of control; the T/C (dose: 0.19 mg/kg/injection, schedule: Q01DX009 (ip), vehicle: Klucel (hydroxypropylcellulose) (HPC)) was 101 % of control; the T/C (dose: 0.39 mg/kg/injection, schedule: Q01DX009 (ip), vehicle: Klucel (hydroxypropylcellulose) (HPC)) was 112 % of control; the T/C (dose: 0.78 mg/kg/injection, schedule: Q01DX009 (ip), vehicle: Klucel (hydroxypropylcellulose) (HPC)) is 105 % of control; the T/C (dose: 4.0 mg/kg/injection, schedule: Q01DX009 (ip), vehicle: Klucel (hydroxypropylcellulose) (HPC)) was 95 % of control; the T/C (dose: 8.0 mg/kg/injection, schedule: Q01DX009 (ip), vehicle: Klucel (hydroxypropylcellulose) (HPC)) is 98 % of control.

On to `CCCCC(C)(C(=O)OCC)C(=O)OCC`, for which the T/C under setting [4] was 108 % of control; the T/C under setting [6] was 101 % of control; the T/C under setting [7] was 102 % of control; the T/C under setting [8] is 101 % of control; the T/C under setting [9] was 102 % of control; the T/C under setting [10] was 94 % of control.

With `Cc1cc(O)c2c(c1O)C(=O)C13C(=C2O)C(=O)C2C(O)C1C1C(O)C3C(=O)C3=C(O)c4c(O)cc(C)c(O)c4C(=O)C321` (configuration not stated), the T/C was 105 % of control (dose: 0.19 mg/kg/injection, schedule: Q01DX009 (ip), vehicle: saline with Tween-80); 114 % of control (dose: 0.39 mg/kg/injection, schedule: Q01DX009 (ip), vehicle: saline with Tween-80); 121 % of control (dose: 0.78 mg/kg/injection, schedule: Q01DX009 (ip), vehicle: saline with Tween-80).

On to `CCOC(=O)C(C)Oc1ccccc1[N+](=O)[O-]` (configuration not stated), for which the T/C was 103 % of control under setting [8], 96 % of control under setting [9] and 103 % of control under setting [10].

Regarding `Cc1cc(OC(=O)Nc2cccc(Cl)c2)ccc1[N+](=O)[O-]`, the T/C by setting is: under setting [7], 93 % of control; under setting [11], 100 % of control; under setting [8], 86 % of control; under setting [12], 100 % of control; under setting [13], 107 % of control.

Regarding `CCC(C)c1ccccc1OC(=O)Nc1ccc(OC)cc1` (configuration not stated), the T/C runs as follows: under setting [7], 100 % of control; under setting [11], 106 % of control; under setting [8], 103 % of control; under setting [12], 106 % of control; under setting [9], 100 % of control; under setting [13], 103 % of control.

In the case of `NC1=NC(=O)N2CC12` (configuration not stated), the T/C under setting [14] is 100 % of control, the T/C under setting [15] is 103 % of control, the T/C under setting [16] was 105 % of control and the T/C under setting [1] was 103 % of control.

As to `CSc1ncc(C#N)c(N)n1`, the T/C runs as follows: under setting [17], 107 % of control; under setting [18], 99 % of control; under setting [19], 97 % of control.

Regarding `O=S(=O)(c1ccc(NC(=S)N/N=C/c2ccccc2O)cc1)N1CCCCC1`, the T/C is, setting by setting: (dose: 25.0 mg/kg/injection, schedule: Q01DX009 (ip), vehicle: olive oil, sesame oil, peanut oil) 87 % of control; (dose: 50.0 mg/kg/injection, schedule: Q01DX009 (ip), vehicle: olive oil, sesame oil, peanut oil) 87 % of control.

As for `C[C@@]12C(=O)OC(=O)[C@]1(C)[C@H]1CC[C@@H]2O1`, the T/C was 89 % of control (dose: 0.06 mg/kg/injection, schedule: Q01DX009 (ip), vehicle: Klucel (hydroxypropylcellulose) (HPC)); 93 % of control (dose: 0.12 mg/kg/injection, schedule: Q01DX009 (ip), vehicle: Klucel (hydroxypropylcellulose) (HPC)); 103 % of control (dose: 0.13 mg/kg/injection, schedule: Q01DX009 (ip), vehicle: acetone); 90 % of control (dose: 0.25 mg/kg/injection, schedule: Q01DX009 (ip), vehicle: Klucel (hydroxypropylcellulose) (HPC)); 101 % of control (dose: 0.25 mg/kg/injection, schedule: Q01DX009 (ip), vehicle: acetone); 102 % of control (dose: 0.5 mg/kg/injection, schedule: Q01DX009 (ip), vehicle: Klucel (hydroxypropylcellulose) (HPC)). Besides, the T/C is 110 % of control (dose: 0.5 mg/kg/injection, schedule: Q01DX009 (ip), vehicle: acetone) and 96 % of control (dose: 1.0 mg/kg/injection, schedule: Q01DX009 (ip), vehicle: Klucel (hydroxypropylcellulose) (HPC)).

For the molecule `NNC(=O)CCC(=O)NN`, the T/C under setting [18] is 102 % of control, the T/C under setting [19] is 104 % of control and the T/C under setting [20] is 93 % of control.

Consider `CCOC(=O)CN1CCC(C2(c3cc4ccccc4[nH]3)OCCO2)CC1`, for which the T/C is, setting by setting: under setting [7], 105 % of control; under setting [8], 93 % of control; under setting [9], 99 % of control.

For `CCNCCNC`, the T/C is 109 % of control under setting [15], 98 % of control under setting [16] and 86 % of control under setting [1].

Consider `CN(C)S(=O)(=O)C(C)(C)c1ccccc1`, for which the T/C under setting [17] was 90 % of control, the T/C under setting [18] was 93 % of control and the T/C under setting [19] was 95 % of control.

Consider `NCC(O)c1ccc(O)c(O)c1` (configuration not stated), for which the T/C was 97 % of control and 105 % of control (dose: 1.56 mg/kg/injection, schedule: Q01DX009 (ip), vehicle: saline); 95 % of control and 107 % of control (dose: 3.12 mg/kg/injection, schedule: Q01DX009 (ip), vehicle: saline); 100 % of control and 106 % of control (dose: 6.25 mg/kg/injection, schedule: Q01DX009 (ip), vehicle: saline); 99 % of control and 102 % of control under setting [14].

For the molecule `CC1(C)N=C(N)N=C(N)N1c1ccc(OCCOc2ccc(S(=O)(=O)F)cc2)c(Cl)c1`, the T/C is, setting by setting: (dose: 12.5 mg/kg/injection, schedule: Q04DX003 (ip), vehicle: saline) 107 % of control; (dose: 25.0 mg/kg/injection, schedule: Q04DX003 (ip), vehicle: saline) 121 % of control.

For the molecule `CCOc1ccccc1NC(=O)c1cc2ccccc2cc1O`, the T/C under setting [1] is 115 % of control; the T/C under setting [2] was 118 % of control; the T/C (dose: 400.0 mg/kg/injection, schedule: Q01DX009 (ip), vehicle: saline) is 121 % of control.

Take `O=C(O)c1ccc(Nc2c3ccccc3nc3ccccc23)cc1`: the T/C is 103 % of control (dose: 8.0 mg/kg/injection, schedule: Q01DX009 (ip), vehicle: other); 117 % of control (dose: 12.0 mg/kg/injection, schedule: Q01DX009 (ip), vehicle: other); 119 % of control (dose: 13.0 mg/kg/injection, schedule: Q01DX009 (ip), vehicle: saline with Tween-80); 117 % of control (dose: 28.0 mg/kg/injection, schedule: Q01DX009 (ip), vehicle: other); 160 % of control (dose: 42.0 mg/kg/injection, schedule: Q01DX009 (ip), vehicle: other); 169 % of control (dose: 44.0 mg/kg/injection, schedule: Q01DX009 (ip), vehicle: Klucel (hydroxypropylcellulose) (HPC)). For the setting “dose: 44.0 mg/kg/injection, schedule: Q01DX009 (ip), vehicle: saline with Tween-80”, the T/C was 156 % of control.

As to `CCCCOC(=O)C(C)OC(=O)Nc1cccc(Cl)c1` (configuration not stated), the T/C reads like this: under setting [18], 88 % of control; under setting [19], 100 % of control; under setting [20], 92 % of control.

For the molecule `O=[N+]([O-])c1ccc(/C=N/c2ncc(Br)s2)o1`, the T/C reads like this: under setting [3], 95 % of control; under setting [5], 93 % of control.
